Data reported in patent US11723948B2, “Method for treating and prognosing cancer” (INSERM (INSTITUT NATIONAL DE LA SANTE ET DE LA RECHERCHE …, priority 2015, dated 2023).

Experiments:
MCF-7 cells = conditions: non-invasive breast cancer cell line MCF-7; cited from earlier work
PCTC #1 = experiment: ELISA of global DNA methylation (5-methylcytosine); type: cell-based, human; conditions: PCTC #1 treated during 30 days
Excerpt: DNA was extracted by using the QiaAmp DNA mini Kit (Qiagen, France). Next, global DNA methylation was estimated by quantifying the presence of 5-methylcytosine using Methylamp Global DNA methylation Quantification kit (Euromedex-Epigentek, France) according to the manufacturers's instructions.
The analysis of all interactions being impossible, we postulated that if P1 inhibited a large number of DNMT3A/D3A-BP interactions, an hypomethylation phenotype would be observable. To observe the putative P1-induced DNA hypomethylation, PCTC #1 were treated during 30 days with P1 (data not shown). Other DNMT inhibitors (5-aza-2-deoxycytidine (5-aza), theaflavin 3,3 digallate (a DNMT3A inhibitor, hereafter called TFD), or peptides (UP peptide, a peptide inhibiting the DNMT1/PCNA/UHRF1 interactions)) were also used as control conditions.

ZR-75-1 = conditions: non-invasive breast cancer cell line ZR-75-1; cited from earlier work
[1] = test system: primary cultured tumor cells (PCTC) from GBM; experiment: Temozolomide+irradiation-induced cell death (trypan blue); type: cell-based, human; conditions: temozolomide 25 μM and irradiation 2 Gy
Procedure: Percentages of cell death were evaluated by using a Trypan Blue Stain 0.4%, and the Countess® Automated Cell Counter (Life Technologies, France). Cell death was induced using temozolomide (25 μM) and irradiation (2 Gy) such as previously described.
To evaluate the impact of the P1-induced disruption of the DNMT3A/ISGF3γ interactions on the sensitivity of apoptosis induced by a therapeutic treatment, we measured the percentage of temozolomide+irradiation-induced cell death since temozolomide (TMZ) and irradiation are conjugated in anti-GBM treatment [Cheray M et al., 2013 and Louis D et al., 2007]. […] Thus, we conclude that P1 acts as a sensitizer of the temozolomide+irradiation-induced cell death.

DNMT3A/AP2γ interaction = experiment: P-LISA in PCTC #1, DNMT3A/AP2γ; type: cell-based, human
Procedure: (§1) Cells were cultured for 24 h on cover slip. Cells were then fixed with 4% paraformaldehyde in PBS pH7.4 for 15 min at room temperature. Permeabilization is performed with PBS containing 0.5% Triton X-100 for 20 min at room temperature. Blocking, staining, hybridization, ligation, amplification and detection steps were realized according to manufacturer's instructions (Olink Bioscience, Sweden). All incubations were performed in a humidity chamber. Amplification and detection steps were performed in dark room. Fluorescence was visualized by using the Axiovert 200M microscopy system (Zeiss, Le Pecq, France) with ApoTome module (X63 and numerial aperture 1.4). Preparations were mounted by using ProLong Gold antifade reagent with DAPI (Life Technologies, France). Pictures acquisition was realized in structured illumination microscopy. […] Finally, the images were analyzed by using the freeware “BlobFinder” available for download from www.cb.uu.se/˜amin/BlobFinder. […]
(§2) For electroporation, NLS sequence was added to peptides. […] Electroporation efficiency for each cell line was initially determined by flow cytometry by uptake of the fluorescent dye, lucifer yellow (Sigma, France). […]
(§3) P1 was designed to inhibit the DNMT3A/ISGF3γ interactions. […] To investigate this point, we analyzed the effect of P1 on the DNMT3A/D3A-BP interactions of interest. […]

MGMT = experiment: qMSP of MGMT methylation; type: cell-based, human; conditions: cells treated with peptide
Excerpt: In glioma, MGMT methylation is associated with a good responsive of anti-glioma treatment including TMZ and irradiation [Esteller M et al., 2000 and Hegi M et al., 2005].

[2] = test system: primary cultured tumor cells (PCTC) from GBM; experiment: Collagen-based cell invasion assay; design: species or system human; conditions: 72 h incubation
Procedure: All of the procedures were followed according to the manufacturer's instructions (QCM 24-Well Collagen-Based Cell Invasion Assay, Millipore, France). In brief, 200 μl serum-free medium containing 2×10^5 cells were seeded into the invasion chamber and placed into the 24 well plate containing 500 μl complete medium. After 72 h incubation at 37° C., media was removed from the chamber, and cells were stained by putting the chamber in staining solution for 20 min at room temperature. Non-invaded cells were carefully removed from the top-side of the chamber. Stained chamber was inserted into a clean well containing 200 μl of extraction buffer for 15 min at room temperature. 100 μl extracted stained solution from the chamber was transferred into the 96 well plate and optical density was measured at 560 nm with a spectrophotometer.

[3] = biological target: T1, DNMT3A/ISGF3γ interaction (Homo sapiens, UniProt Q00978); experiment: Competitive pull-down assay of the DNMT3A/ISGF3γ interaction; type: binding; conditions: for inhibition of the DNMT3A/ISGF3γ interaction: peptides pre-incubated 1 h at 37° C., FIG. 2A
T1 construct: GST
T1 sequence (Q00978 1-393): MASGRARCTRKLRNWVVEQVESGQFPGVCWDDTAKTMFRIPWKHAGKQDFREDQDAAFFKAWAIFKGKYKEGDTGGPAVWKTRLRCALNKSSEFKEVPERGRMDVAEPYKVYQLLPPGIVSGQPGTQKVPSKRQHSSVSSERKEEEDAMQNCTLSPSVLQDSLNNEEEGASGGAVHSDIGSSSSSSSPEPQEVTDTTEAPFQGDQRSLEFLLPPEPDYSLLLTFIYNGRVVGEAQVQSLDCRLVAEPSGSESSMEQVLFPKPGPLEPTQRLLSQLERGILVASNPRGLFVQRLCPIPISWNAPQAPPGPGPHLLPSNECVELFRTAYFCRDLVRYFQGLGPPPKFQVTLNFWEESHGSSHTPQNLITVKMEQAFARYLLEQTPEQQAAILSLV
Procedure: Pull-down assays were performed by using the GST/His Tagged-Protein Interaction Pull-Down Kits (Thermo Scientific, France). Briefly, 100 μg of bait protein were immobilized on column via an incubation at 4° C. for 1 h with gentle mixing. After washing, 1 μg of prey protein was added for 1 h at 4° C. with gentle rocking motion on a rotating platform. After washes and elution, the “bait-prey” interaction was analyzed by SDS-PAGE and Western blot methods. Competitive pull-down experimentations were realized by pre-incubating considered peptides for 1 h at 37° C.
In brief, proteins were size fractionated by sodium dodecyl sulfate-polyacrylamide gel electrophoresis. Proteins were transferred onto nitrocellulose or PVDF membrane. Saturation and blotting were realized by using SNAP I.™ Protein Detection System (Millipore, France). The detection of proteins was performed using ECL™ (Amersham Biosciences, France) and/or SuperSignal west femto Maximum Sensitivity (Thermo Scientific, France) chemilumenescence reagents. The detection of proteins was performed using the FusionX7 Imager (Fisher Scientific, France).

[4] = test system: primary cultured tumor cells (PCTC) from GBM; experiment: Migration assay, scratch test; type: cell-based, human; conditions: 24 hours, mitomycin C pre-treatment
Procedure: Cell migration assay was performed using a scratch technique. Cells were plated in 6-well plates at 80-90%, and were treated with 10 μg/ml mitomycin C (Sigma, France) for 2 hours (in order to remove the influence of cell proliferation). Cells were then scratched. Cell migration was monitored by microscopy. The images acquired for each sample were analyzed quantitatively. For each image, distances between one side of scratch and the other were measured. By comparing the images from time 0 to the last time point (24 hours), we obtain the distance of each scratch closure on the basis of the distances that are measured.
Impact of the P1-induced disruption of the DNMT3A/ISGF3γ interactions on migration capability was next estimated by performing a scratch test assay.

DNMT3A/HDAC1 interaction = biological target: T2, DNMT3A/HDAC1 interaction (Homo sapiens, UniProt Q13547); experiment: P-LISA in PCTC #1, DNMT3A/HDAC1; type: cell-based
T2 construct: endogenous in cells; host or cells: PCTC #1 (primary cultured glioblastoma tumor cells)
T2 sequence (Q13547 whole entry): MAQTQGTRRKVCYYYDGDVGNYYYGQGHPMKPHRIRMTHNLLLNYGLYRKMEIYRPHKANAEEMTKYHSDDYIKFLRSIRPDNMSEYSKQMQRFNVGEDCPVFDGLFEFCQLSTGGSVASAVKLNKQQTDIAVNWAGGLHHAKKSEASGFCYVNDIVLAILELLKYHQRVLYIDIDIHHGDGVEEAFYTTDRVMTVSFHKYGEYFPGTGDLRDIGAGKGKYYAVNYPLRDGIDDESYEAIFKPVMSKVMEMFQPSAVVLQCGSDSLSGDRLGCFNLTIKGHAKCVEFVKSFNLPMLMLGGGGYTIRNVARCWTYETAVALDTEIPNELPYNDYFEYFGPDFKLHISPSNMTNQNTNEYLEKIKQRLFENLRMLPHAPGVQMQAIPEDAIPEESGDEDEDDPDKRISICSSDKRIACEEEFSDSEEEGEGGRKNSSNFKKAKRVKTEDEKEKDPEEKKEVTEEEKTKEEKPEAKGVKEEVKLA
Procedure: as §1, §2, §3

[5] = test system: PCTC-GBM glioma cells having high level of DNMT3A/ISGF3γ interactions; experiment: Established subcutaneous glioma tumors in swiss nude mice; type: in vivo; conditions: treatment from tumor volume 100 mm^3, after 3 weeks of treatment; FIG. 3B
Procedure: A. Design of the experiment. […] Then, mice were treated with indicated treatment. D: day, w: week, it: intra-tumoral, ip: Intraperitoneal.
B. Graph illustrates the impact of the 4 considered treatments on tumor weight of established tumors. Open circles represent mice. Black circles represent the average±standard deviation obtained for each treatment. p values were obtained by performing a t test.
Cultured cells were harvested by trypsinization, washed and resuspended in saline buffer. Cell suspensions were injected s.c. as 2.106 cells in 0.05 ml of PBS with equal volume of matrigel matrix (Becton Dickinson, France) in the flank of 7/8-week-old Nude NMRI-nu female mice (Janvier, France). After tumor establishment, mice were treated with temozolomide and/or peptides via intra-tumor injection (it). To obtain tumor weigh, each tumor was surgically removed and is weighed. All experimental procedures using animals were realized in accordance with the guidelines of Institutional Animal Care and the French National Committee of Ethics.
Standard anti-GBM treatment using temozolomide as chemotherapeutic agent, we next investigated the effect of a treatment associating P1 peptide with TMZ in a swiss nude mice model of established tumors.

[6] = test system: primary cultured tumor cells (PCTC) from GBM; experiment: Proliferation assay, doubling time; type: cell-based, human; conditions: counted every 24 h over 120 h
Procedure: Doubling time (i.e. the period of time required for a quantity to double in size) was calculated by using the Doubling Time Online Calculator website (Roth V. 2006, http://www.doubling-time.com/compute.php) and counting the proliferation of […] over 120 hours. Cell number was determined, every 24 h over 120 h, using the Countess® Automated Cell Counter (Life Technologies, France).
To estimate the impact of the P1-induced disruption of DNMT3A/ISGF3γ interactions on proliferation, we calculated the doubling time.

[7] = biological target: T3, DNMT3A/ISGF3γ interactions (Homo sapiens, UniProt Q00978); experiment: Proximity Ligation In Situ Assay (P-LISA) in PCTC #1, DNMT3A/ISGF3γ; type: cell-based; conditions: PCTC #1, P-LISA 12 hr after electroporation of peptide
T3 construct: we used a PCTC (named PCTC #1); endogenous in cells; host or cells: PCTC #1 (primary cultured glioblastoma tumor cells)
T3 sequence (Q00978 1-393): T1 sequence (Q00978 1-393)
Procedure: Cells were cultured for 24 h on cover slip. Cells were then fixed with 4% paraformaldehyde in PBS pH7.4 for 15 min at room temperature. Permeabilization is performed with PBS containing 0.5% Triton X-100 for 20 min at room temperature. Blocking, staining, hybridization, ligation, amplification and detection steps were realized according to manufacturer's instructions (Olink Bioscience, Sweden). All incubations were performed in a humidity chamber. Amplification and detection steps were performed in dark room. Fluorescence was visualized by using the Axiovert 200M microscopy system (Zeiss, Le Pecq, France) with ApoTome module (X63 and numerial aperture 1.4). Preparations were mounted by using ProLong Gold antifade reagent with DAPI (Life Technologies, France). Pictures acquisition was realized in structured illumination microscopy. After decovolving (3.5 Huygens Essential software (SVI)), 3D view was obtained by using Amira.4.1.1 program. Finally, the images were analyzed by using the freeware “BlobFinder” available for download from www.cb.uu.se/˜amin/BlobFinder. Thus, we obtained either number of signals per nuclei since nuclei can be automatically identified.
as §2

DNMT3A/GATA1 interaction = biological target: T4, DNMT3A/GATA1 interaction (Homo sapiens, UniProt P15976); experiment: P-LISA in PCTC #1, DNMT3A/GATA1; type: cell-based
T4 construct: endogenous in cells; host or cells: PCTC #1 (primary cultured glioblastoma tumor cells)
T4 sequence (P15976 whole entry): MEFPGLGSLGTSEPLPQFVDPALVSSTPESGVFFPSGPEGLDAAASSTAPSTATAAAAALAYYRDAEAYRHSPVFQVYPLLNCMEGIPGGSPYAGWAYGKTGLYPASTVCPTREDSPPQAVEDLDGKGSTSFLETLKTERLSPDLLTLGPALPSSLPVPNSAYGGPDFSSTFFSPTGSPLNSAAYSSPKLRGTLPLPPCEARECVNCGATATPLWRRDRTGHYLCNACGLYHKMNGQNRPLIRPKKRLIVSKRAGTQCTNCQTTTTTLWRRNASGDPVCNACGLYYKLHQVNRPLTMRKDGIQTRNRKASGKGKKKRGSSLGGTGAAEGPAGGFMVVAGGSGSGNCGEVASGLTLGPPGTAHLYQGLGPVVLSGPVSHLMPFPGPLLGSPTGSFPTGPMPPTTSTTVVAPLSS
Procedure: as §1, §2, §3

DNMT3A/ISGF3γ interaction with increasing peptide concentration ([3]; increasing concentration of peptide, FIG. 2B) | integrity of the DNMT3A/HDAC1 interaction (DNMT3A/HDAC1 interaction) | red dots representing the DNMT3A/ISGF3γ interactions [7] | integrity of the DNMT3A/GATA1 interaction (DNMT3A/GATA1 interaction) | Compound | invasiveness (MCF-7 cells) | global level of 5-methylcytosine (PCTC #1) | invasiveness (ZR-75-1) | percentage of temozolomide+irradiation-induced cell death [1] | percentage of cell death compared with the other treatment ([1]; P1 versus TDF) | integrity of the DNMT3A/AP2γ interaction (DNMT3A/AP2γ interaction) | methylation level of MGMT (MGMT) | cell invasion [2] | inhibition of the DNMT3A/ISGF3γ interaction [3] | cell migration [4] | tumor growth (tumor weight/volume) of established tumors [5] | doubling time of cells [6]
 |  |  |  | Nc1ncn([C@H]2C[C@H](O)[C@@H](CO)O2)c(=O)n1 [5-aza, 5-aza-2-deoxycytidine] | increased the invasiveness | decreased the global level of DNA methylation | increased the invasiveness |  |  |  |  |  |  |  |  | 
decreased | no effect | decreased | no effect | RPMPRLTFQAGDPYYI (Synthetic P1) |  | had not effect |  | increased | higher than the one obtained with TDF | no effect | remains unchanged | unmodified the cell invasion characteristic | inhibited the DNMT3A/ISGF3γ interaction | decreased cell migration | no statistical difference | no effect
 |  |  |  | RPMPRLTAQAGAPYYI (Synthetic P1mut) [P1^mut, mutated P1 peptide, reference compound] |  |  |  |  |  |  |  |  | does not inhibit the DNMT3A/ISGF3γ interaction |  |  | 
 |  |  |  | O=C(O[C@@H]1Cc2c(O)cc(O)cc2O[C@@H]1c1cc(O)c(=O)c2c(O)c(O)cc([C@H]3Oc4cc(O)cc(O)c4C[C@H]3OC(=O)c3cc(O)c(O)c(O)c3)c2c1)c1cc(O)c(O)c(O)c1 [TFD, theaflavin 3,3 digallate, reference compound] |  | decreased the global level of DNA methylation |  | increased |  |  |  | promoted the cell invasion |  | had no effect on cell migration |  | no effect
